The text below walks through data of PMC10870435, “A novel complement C3 inhibitor CP40-KK protects against experimental pulmonary arterial hypertension via an inflammasome NLRP3 associated pathway” (Journal of Translational Medicine, 2024).

One data set has as its system RAW264.7 cells. Put plainly: RAW264.7 macrophages, western blot of NLRP3 pathway after C3a. It counts as cell-based. The settings on record: n = 3 per group. How it is done: RAW264.7 cells were provided by the Hubei Key Laboratory of Genetics and Molecular Mechanism of Cardiologic Disorders, Huazhong University of Science and Technology (China), and cultured in DMEM containing 10% fetal bovine serum at 37 ℃ and 5% CO2. RAW264.7 cells were incubated with 50 nM C3a for 12 h and then were washed twice with PBS. The cells were incubated with serum-free DMEM for 12 h and the supernatants were collected. After pretreatment with 100 ng/ml of IL-1RA for 1 h, we added the supernatants from the control or C3a group to PASMCs respectively for 24 h.
Proteins were collected from the fresh frozen-rat lung tissues using RIPA lysis buffer. Protein concentration was quantified using a BCA reagent. Equal amounts of protein were electrophoretically separated on 10% SDS polyacrylamide gel, transferred to PVDF membranes, and probed with desired primary antibodies overnight at 4 °C. Membranes were then washed with TBST and incubated with anti-mouse IgG (1:5000) or anti-rabbit IgG (1:5000) horseradish peroxidase conjugated antibodies as indicated. Blots were developed with the enhanced chemiluminescence system. To compare and quantify levels of proteins, the density of each band was measured using Image J software. Equal loading for total cell or tissue lysates was determined by β-Actin western blot.
In general terms: Immunoblotting shows a protein as a band on a membrane.

Data set [1] relates to MCT-induced rat PAH model. The data set is described as follows: MCT-induced rat PAH model: hemodynamics, RV hypertrophy, vessel morphology. It counts as in vivo. The settings on record: single i.p. injection 40 mg/kg; control group 28.00 ± 3.55 mmHg; mean ± SEM; n = 6 per group; SEM. The protocol:
In the current study, two animal experiments were conducted successively. 30 rats were randomly divided into two groups (control group and MCT group, n = 15 per group) in the first experiment. MCT group rats received a single intraperitoneally injection of MCT (40 mg/kg) on day 1 to induce PAH while control group rats received an equivoluminal saline injection intraperitoneally. For the second animal experiment, the rats were assigned into four groups (control group, MCT group, CP40-KK group, and MCT + CP40-KK group, n = 15 per group). The control group was given the same volume of saline subcutaneously while the CP40-KK group rats only received CP40-KK (2 mg/kg) by subcutaneous injection from day 15 to day 28 continuously. The rats in the MCT group and MCT + CP40-KK group were received a single intraperitoneally injection of MCT (40 mg/kg) on day 1 and subcutaneously injected with either an equal volume of saline or CP40-KK (2 mg/kg) at day 15 to day 28 continuously. The dose selection of MCT and CP40-KK in our study was established based on previous studies.
Four weeks after the MCT injection, the experimental rats were weighed and anesthetized by intraperitoneal injecting pentobarbital sodium (40 mg/kg). After being anesthetized, rats were fixed in the supine position. A 3F polyethylene catheter filling with heparin was introduced into the right ventricle (RV) through the right jugular vein and the right atrium. Right ventricle systolic pressure (RVSP) was assessed by a pressure transducer and PowerLab system (AD Instruments, Australia). Pressure recordings were measured over a 2 min period and analyzed with Powerlab Pro Software (AD Instruments, Australia). After the hemodynamic study, the rats were euthanized by an overdose of anesthesia, and their lungs and hearts were dissected for further evaluation. The dry weights of the RV and left ventricle (LV) + septum were measured to calculate the RV/(LV + S) ratio and the RV / body weight (RV/BW). The left lung was fixed in 4% paraformaldehyde, and the right lung was snap-frozen in liquid nitrogen and stored at − 80 °C for further analysis.
Fixed lung samples were further fixed in 4% buffered paraformaldehyde for 24 h, embedded in paraffin, and processed for sectioning at 5 μm thick. Hematoxylin and eosin (H&E) staining were performed on paraffin-fixed lung tissue slides. The percent medial wall thickness (WT%) and percent medial wall area (WA%) were used to assess the extent of pulmonary vascular remodeling. WT% = (external diameter − internal diameter)/(external diameter) × 100%; WA% = (external area − internal area)/external area × 100%. All data were obtained and analyzed in a blinded manner.

The test system of another data set is C3. To be noted: cited from earlier work. From the text:
The selective C3 inhibitor CP40 has been found therapeutically effective in various diseases, but has yet not been tested in the PAH model. In the current study, we applied the newly identified CP40 analog, CP40-KK, with two more lysine attached to the C terminus, in the MCT-induced PAH rat model.

Data set [2] concerns primary rat pulmonary arterial smooth muscle cells (PASMCs). Put plainly: PASMC proliferation with macrophage supernatant (EdU assay, western blot). The settings on record: 24 h, n = 3 per group. It counts as cell-based. The protocol:
PASMCs were isolated from rat distal pulmonary arteries and then cultured in Dulbecco’s modified Eagle’s medium (DMEM) containing 20% fetal bovine serum as previously described.
Cells seeded in the 24-well plate were labeled with 10 μmol/L of EdU (Meilun, Dalian, China) for 2 h at 37 ℃. Subsequently, cells were fixed in 4% of paraformaldehyde for 20 min and incubated in phosphate-buffered saline (PBS) containing 0.5% of Triton- X100 for 15 min. After being washed three times with PBS, 150 μL of dying solution was applied per well for 30 min and nuclei staining with Hoechst 33,342 for 10 min away from light. The proliferating cells were labeled with green fluorescence, with a maximum excitation wavelength of 491 nm and a maximum emission wavelength of 518 nm for 488-Azide. The proliferative rate = EdU-positive cells/Hoechst-positive cells.
RAW264.7 cells were provided by the Hubei Key Laboratory of Genetics and Molecular Mechanism of Cardiologic Disorders, Huazhong University of Science and Technology (China), and cultured in DMEM containing 10% fetal bovine serum at 37 ℃ and 5% CO2. RAW264.7 cells were incubated with 50 nM C3a for 12 h and then were washed twice with PBS. The cells were incubated with serum-free DMEM for 12 h and the supernatants were collected. […]

Regarding `NC(N)=NCCC[C@H](NC(=O)COCC(c1ccccc1)c1ccccc1)C(=O)O.O=C(O)C(F)(F)F` [C3aRa, SB290157 trifluoroacetate, reference compound], in the data set on RAW264.7 cells (RAW264.7 treated with C3a (50 nM), 1 mM C3aRa), the “cellular levels of NLRP3, cleaved-caspase-1, cleaved-IL1β and IL18” value was “reduced”.

Consider `C[C@H]1C(=O)O[C@@H]2CCN3CC=C(COC(=O)[C@](C)(O)[C@]1(C)O)[C@H]23` [MCT, Monocrotaline, reference compound], for which, in data set [1], the “RVSP after 4 weeks of MCT treatment” value is 63.03 ± 4.19 mmHg.

Turning to `CC[C@H](C)[C@H](N)C(=O)N[C@H]1CSSC[C@@H](C(=O)N[C@H](C(N)=O)[C@@H](C)O)NC(=O)[C@H](CCCNC(=N)N)NC(=O)[C@H](Cc2c[nH]cn2)NC(=O)[C@H](Cc2c[nH]cn2)NC(=O)CNC(=O)[C@H](Cc2c[nH]c3ccccc23)NC(=O)[C@H](CC(=O)O)NC(=O)[C@H](CCC(N)=O)NC(=O)[C@H](C(C)C)NC(=O)[C@H](C(C)C)NC1=O` [compstatin], in the data set with C3, the “species specificity of C3 binding” value is on record as “can bind only primates but not rodent C3”.

As to “C3a: complement anaphylatoxin C3a protein used at 50 nM to stimulate macrophages”, the “cleaved-IL1β production by macrophages” value with RAW264.7 cells (RAW264.7, C3a 50 nM) is reported as “stimulated macrophages to produce cleaved-IL1β”.

Consider “IL-1RA: IL-1RA protein reagent (MedChemExpress HY-P72566), 100 ng/ml pretreatment of PASMCs”, for which the “PCNA and Cyclin D1 expression in PASMCs” value in data set [2] (C3a-supernatant + IL-1RA vs C3a-supernatant + PBS, western blot) is “decreased”. Also, the “number of EdU-positive PASMCs increased by macrophage-conditioned media” value in data set [2] (C3a-supernatant, 100 ng/ml IL-1RA pretreatment 1 h) is on record as “reversed”.
